Experimental data from patent publication US20260284009A1, “COMPOUNDS FOR NOS-RELATED CANCERS AND METHODS OF USE” (YISSUM RESEARCH DEVELOPMENT COMPANY OF THE HEBREW …, priority 2023, published 2026).

Columns and labels:
[1] = system: SH-SY5Y cells; assay: Clonogenic survival of SH-SY5Y cells; assay type: cell-based, human; conditions: 100 μM 7-NI or 20 nM siRNA (SEQ ID NO: 4), n=4
Procedure: In FIGS. 3A-3B, for quantitative analysis data, all individual data series are presented as biological replicates (n=4) for all groups. Data are presented as mean±SEM. Statistical significance was determined using a One-way ANOVA followed by Fisher's LSD multiple comparison post hoc test. *P<0.05, **P<0.01, and ns=not significant.
FIG. 3A: Representative well images of clonogenic growth following administration of the control (“SH-SY5Y”), 0.1% DMSO (“SH-SY5Y+NC”), 100 μM 7-NI (“SH-SY5Y+7-NI”), or 20 nM siRNA (SEQ ID NO: 4) (“SH-SY5Y+si-nNOS”).
FIG. 3B: Quantitative analysis of clonogenic survival for the experiments of FIG. 3A.

[2] = system: U87-MG-xenografted mice; assay: Survival of U87-MG-xenografted mice; assay type: in vivo; conditions: 80 or 120 mg/kg 7-NI daily, vs saline vehicle
[3] = system: SH-SY5Y cells; assay: Nitrite (Griess) assay in SH-SY5Y cells; assay type: cell-based, human; conditions: 7-NI
Procedure: (§1) Human neuroblastoma (“NB”) SH-SY5Y cells were obtained from the American Type Culture Collection (ATCC) and maintained in Dulbecco's modified Eagle's medium (DMEM) and Ham's F-12 (1:1) supplemented with 10% fetal bovine serum, 2 mM L-glutamine, and 100 U/ml penicillin-G/[…] streptomycin in the humidified atmosphere (37° C., 5% CO2). Cells were plated onto 25 cm^2 and 75 cm^2 at a density of […] respectively for Western blotting (WB) and 1×10^5 for immunofluorescence. The SH-SY5Y cells were treated with 100 μM 7-nitroindazole (7-NI) for 24 hr. This concentration was confirmed in the dose-response experiment (FIG. 1) using an MTT viability assay.
Released NO was measured with Griess assay Kit (Sigma-Aldrich, Cat. No. 23479) using the manufacturer's instructions.
SH-SY5Y cells were plated in 6 well plates, as well as on 22 mm^2 coverslips at a density of 6.0×10^4 cells/cm^2 and transfected with 20 nM nNOS siRNA (SEQ ID NO: 4) for 24 h, with the use of Lipofectamine RNAi MAX (56530, Invitrogen) according to the manufacturer's protocol. Then cells were washed with phosphate-buffered saline (PBS) and harvested for WB and fixed for immunofluorescence.

[4] = system: SH-SY5Y cells; assay: Immunofluorescent staining of Syp and 3-Ntyr in SH-SY5Y cells; assay type: cell-based, human; conditions: immunofluorescence, 100 μM 7-NI or 20 nM siRNA
Procedure: In FIGS. 5A-5C, for quantitative analysis each group consisted of three independent sets of experiments run in triplicate. Data are presented as mean±SEM. Statistical significance was determined using a One-way ANOVA followed by Fisher's LSD multiple comparison post hoc test. **P<0.01 and ***P<0.001.
FIG. 5A: Representative immunofluorescent images of SH-SY5Y cells stained for Syp and 3-Ntyr following administration of the control (“SH-SY5Y”), 100 μM 7-NI (“SH-SY5Y+7-NI”), or 20 nM siRNA (SEQ ID NO: 4) (“SH-SY5Y+si-nNOS”). The scale bar is 10 μm.
FIG. 5B: Quantitative analysis of fluorescent intensity of Syp for the experiments of FIG. 5A.
FIG. 5C: Quantitative analysis of fluorescent intensity of 3-Ntyr for the experiments of FIG. 5A.

[5] = system: SH-SY5Y cells; assay: NADPH-diaphorase activity assay (NOS activity) in SH-SY5Y cell lysates; assay type: cell-based, human; conditions: 100 μM 7-NI, 24 hr
Procedure: as §1
The NADPH-diaphorase activity assay was used to determine the NOS activity based on the NADPH-dependent reduction of nitro-blue tetrazolium salt (NBT) to visible formazan. SH-SYSY cells grown in six-well culture plates were lysed in 50 mM Tris-HCl buffer (pH 7.4), containing 0.1% Triton X-100, 2 mM EDTA, and a protease inhibitor cocktail (Sigma, St. Louis, MO). […] After a 15 min incubation period at 37° C., the production of formazan was measured spectrophotometrically at 585 nm. The data were expressed as absorbance units and normalized for the protein content of each sample. Protein concentration was measured by the bicinchoninic acid (BCA) protein assay using BSA as a standard. […]

[6] = system: SH-SY5Y cells; assay: Confocal immunofluorescence of SH-SY5Y cells (3-Ntyr, Syp); assay type: cell-based, human; conditions: 7-NI
Procedure: as §1
Cells cultured on coverslips coated with Poly-D-Lysine were washed three times with PBS and fixed in 4% paraformaldehyde for 15-20 min at room temperature. The fixed cells were washed three times with PBS and incubated in the presence of permeabilization buffer (PBS containing 0.1% Triton X-100) for 5 min at room temperature. […]

[7] = system: SH-SY5Y cells; assay: Nitrite levels (marker of NO levels) by Griess assay in SH-SY5Y cells; assay type: cell-based, human; conditions: 100 μM 7-NI or 20 nM siRNA (SEQ ID NO: 4), n=3
Procedure: In FIGS. 2A-2C, for quantitative analysis absorbance at 585 nm was normalized for total protein. Data are expressed as the mean±SEM. Statistical significance was determined using a One-way ANOVA followed by Fisher's LSD multiple comparison post hoc test. *P<0.05 and **P<0.01.
FIG. 2B: Quantitative analysis of nitrite levels (a marker of NO levels) measured by Griess assay for SH-SY5Y cells following administration of the control (“SH-SY5Y”) (n=3), 0.1% DMSO (“SH-SY5Y+NC”) (n=3), 100 μM 7-NI (“SH-SY5Y+7-NI”) (n=3), 20 nM siRNA (SEQ ID NO: 4) (“SH-SY5Y+si-nNOS”) (n=3).

[8] = system: U87-MG-xenografted mice; assay: Tumor growth in U87-MG-xenografted mice; assay type: in vivo; conditions: 10 mg/kg, compared to the vehicle (FIGS. 16-17)
Procedure: In a particular example, in vitro and in vivo experiments were performed using U87-MG cells and U87-MG-xenografted mice, respectively, as a glioblastoma model.

For `O=[N+]([O-])c1cccc2cn[nH]c12` [7-NI, 7-nitroindazole], the clonogenic survival [1] was “significant decrease”, the survival [2] was “increased survival” and the “nitrite content (Griess assay)” value [3] was “dramatic reduction”. For the same compound, the “3-Ntyr expression levels (fluorescent intensity)” value [4] was “significant decrease”, the “Syp expression levels (fluorescent intensity)” value [4] was “significant decrease” and the “NADPH diaphorase activity (NOS activity)” value [5] was “significantly inhibited”. For the same compound, the “fluorescence intensity of 3-Ntyr” value [6] was “significantly decreased”, the “fluorescence intensity of Syp” value [6] was “significantly decreased” and the “nitrite levels (a marker of NO levels)” value [7] was “significant decrease”.

With `CC(=N)NCCCC[C@H](N)C(=O)O` [L-NIL, N^6-(1-iminoethyl)-L-lysine] the average tumor size [8] was “significantly smaller”.
